# Molecular target: T1, purified human Factor XIa (Homo sapiens, UniProt P03951)
# T1 construct: purchased Haematologic Technologies
# Assay: Factor XIa assay (chromogenic substrate hydrolysis, Ki)
# Type: biochemical
# Conditions: purified human Factor XIa 75-200 pM, substrate S-2366, 50 mM HEPES pH 7.4
# Description: The effectiveness of compounds of the present invention as inhibitors of the coagulation factors XIa, VIIa, IXa, Xa, XIIa, plasma kallikrein or thrombin, can be determined using a relevant purified serine protease, respectively, and an appropriate synthetic substrate. The rate of hydrolysis of the chromogenic or fluorogenic substrate by the relevant serine protease was measured both in the absence and presence of compounds of the present invention. […] A decrease in the rate of absorbance or fluorescence change in the presence of inhibitor is indicative of enzyme inhibition. Such methods are known to one skilled in the art. The results of this assay are expressed as the inhibitory constant, Ki.
# Factor XIa determinations were made in 50 mM HEPES buffer at pH 7.4 containing 145 mM NaCl, 5 mM KCl, and 0.1% PEG 8000 (polyethylene glycol; JT Baker or Fisher Scientific). Determinations were made using purified human Factor XIa at a final concentration of 75-200 pM (Haematologic Technologies) and the synthetic substrate S-2366 (pyroGlu-Pro-Arg-pNA; Chromogenix or AnaSpec) at a concentration of 0.0002-0.001 M.
# The Michaelis constant, Km, for substrate hydrolysis by each protease, was determined at 25° C. using the method of Lineweaver and Burk. Values of Ki were determined by allowing the protease to react with the substrate in the presence of the inhibitor. Reactions were allowed to go for periods of 20-180 minutes (depending on the protease) and the velocities (rate of absorbance or fluorescence change versus time) were measured. The following relationships were used to calculate Ki values: (vo−vs)/vs=I/(Ki(1+S/Km)) for a competitive inhibitor with one binding site; or vs/vo=A+((B−A)/1+((IC50/(I)^n))); and Ki=IC50/(1+S/Km) for a competitive inhibitor where: […]
# T1 sequence (P03951 388-625 limits assumed): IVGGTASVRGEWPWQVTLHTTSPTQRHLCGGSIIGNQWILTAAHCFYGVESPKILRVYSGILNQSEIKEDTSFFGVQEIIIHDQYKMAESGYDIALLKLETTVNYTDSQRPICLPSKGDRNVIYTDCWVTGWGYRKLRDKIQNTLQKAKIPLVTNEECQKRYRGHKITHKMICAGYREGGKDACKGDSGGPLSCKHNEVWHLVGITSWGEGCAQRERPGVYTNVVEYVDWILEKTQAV
# T1 sequence (P03951 19-387 partner limits assumed): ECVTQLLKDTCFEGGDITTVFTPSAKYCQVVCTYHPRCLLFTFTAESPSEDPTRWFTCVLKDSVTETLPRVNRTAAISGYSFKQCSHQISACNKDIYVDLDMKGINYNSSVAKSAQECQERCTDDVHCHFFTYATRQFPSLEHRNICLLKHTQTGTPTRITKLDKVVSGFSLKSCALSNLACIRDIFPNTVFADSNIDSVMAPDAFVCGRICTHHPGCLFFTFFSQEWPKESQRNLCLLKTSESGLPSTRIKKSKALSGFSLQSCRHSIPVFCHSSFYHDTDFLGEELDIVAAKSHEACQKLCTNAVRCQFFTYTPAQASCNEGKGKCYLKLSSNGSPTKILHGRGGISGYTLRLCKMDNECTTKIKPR
row,Compound,Ki [nM]
1,"COC(=O)Nc1ccc(-c2cc([C@H](CC3CN(C(=O)OC(C)(C)C)C3)NC(=O)/C=C/c3cc(Cl)ccc3-n3cnnn3)n[nH]c2=O)cc1 [Example 136, (S,E)-tert-Butyl 3-(2-(3-(5-chloro-2-(1H-tetrazol-1-yl)phenyl)acrylamido)-2-(5-(4-(methoxycarbonylamino)phenyl)-6-oxo-1,6-dihydropyridazin-3-yl)ethyl)azetidine-1-carboxylate]",503
2,"COC(=O)Nc1ccc(-c2cc([C@H](CC(=O)OC(C)(C)C)NC(=O)/C=C/c3cc(Cl)ccc3-n3cnnn3)n[nH]c2=O)cc1 [Example 146, (S,E)-tert-Butyl 3-(3-(5-chloro-2-(1H-tetrazol-1-yl)phenyl)acrylamido)-3-(5-(4-(methoxycarbonylamino)phenyl)-6-oxo-1,6-dihydropyridazin-3-yl)propanoate]",5.5
3,"COC(=O)Nc1ccc(-c2cc([C@H](CC3CCN(C(=O)OCc4ccccc4)C3)NC(=O)/C=C/c3cc(Cl)ccc3-n3cnnn3)n[nH]c2=O)cc1 (stereo partly drawn) [Example 147, Benzyl 3-((S)-2-((E)-3-(5-chloro-2-(1H-tetrazol-1-yl)phenyl)acrylamido)-2-(5-(4-(methoxycarbonylamino)phenyl)-6-oxo-1,6-dihydropyridazin-3-yl)ethyl)pyrrolidine-1-carboxylate]",5150
4,"COC(=O)Nc1ccc(-c2cc([C@H](CC3CCCN(S(C)(=O)=O)C3)NC(=O)/C=C/c3cc(Cl)ccc3-n3cnnn3)n[nH]c2=O)cc1 (stereo partly drawn) [Example 154, Methyl 4-(6-((1S)-1-((E)-3-(5-chloro-2-(1H-tetrazol-1-yl)phenyl)acrylamido)-2-(1-(methylsulfonyl)piperidin-3-yl)ethyl)-3-oxo-2,3-dihydropyridazin-4-yl)phenylcarbamate]",176

# Reference: patent US8324199B2, “Pyridazine derivatives as factor xia inhibitors” (Bristol-Myers Squibb Company, priority 2008, dated 2012)
